{"source": "paper PMC4022547", "about": "(Molecular Brain, 2014)", "key": {"[1]": {"target": "hα6(A112V) + codon optimized hβ2 + hβ3^V9’S nAChR (Homo sapiens, UniProt P17787+Q15825, A112V)", "conditions": "100 μM nicotine; oocytes clamped at −70 mV", "experimental": "(§1) We planned to introduce identical amounts of cRNA, presumably producing equal amounts of each subunit protein, into oocytes largely due to lack of information about the levels of mRNA for each subunits that compose α6*-nAChRs in neurons or other cells. Concentrations of cRNAs for each nAChR α and β subunits (WT, mutant or variant) were adjusted to 500 ng μL^−1. We provisionally assumed that hα6 or its variants in association with hβ2 or hβ4 subunits would form complexes having 2:3 and/or 3:2 ratios of the indicated subunits and that oocytes also injected with WT or mutant form of β3 subunits (i.e., β3^V9’S) would express nAChR with 2:2:1 ratios of α:β:(β3 or β3^V9’S) subunits. For expression of binary nAChRs (i.e., two subunit containing nAChRs; α + β but not β3) cRNA mixtures were prepared by mixing 1 μL of cRNA for each subunit and an additional μL of RNAse free water (i.e., total volume 3 μL). Similarly for expression of ternary nAChRs [i.e., three subunit containing nAChRs; (α + β) + (β3 or β3^V9’S)] cRNA mixtures were prepared by mixing 1 μL of cRNA for each subunit. Several preparations of each mixture were prepared and stored at −80°C until further use. Injection of 138 nL of cRNA, out of 3 μL cRNA mixtures, into each oocyte would deliver ~23 ng of cRNA for each subunit whether binary or ternary nAChRs are expressed.\n(§2) Two to 5 days after injection, oocytes were placed in a small-volume chamber and continuously perfused with OR2. The chamber was grounded through an agarose bridge. The oocytes were voltage-clamped at −70 mV (unless otherwise noted) to measure agonist or antagonist induced currents using Axoclamp 900A and pClamp 10.2 software (Molecular Devices, Sunnyvale, CA). The current signal was low-pass filtered at 10 Hz with the built-in low-pass Bessel filter in the Axoclamp 900A and digitized at 20 Hz with Axon Digidata1440A and pClamp10. […] Drugs (agonists and antagonists) were prepared daily in OR2. Drug was applied using a Valvelink 8.2 perfusion system (Automate scientific, Berkeley, CA). […] Then for the purpose of comparison electrophysiological recordings were performed in a given day in a given batch of oocytes following the same order of injections. […] All hβ4*-nAChR recordings were done in similar conditions to facilitate comparisons between hα6hβ4- and hα6hβ4hβ3-nAChRs. All electrophysiological measurements were conducted or checked in at least two batches of oocytes.\n(§3) Raw data was collected and processed in part using pClamp 10.2 (Molecular Devices, Sunnyvale, CA), Origin 7.5 (OriginLab Corporation, Northampton, MA) and a spreadsheet (Excel; Microsoft, Bellevue, WA). Peak current amplitudes (Imax) are reported as mean ± SEM (for results from at least three oocytes, i.e., n = 3)."}, "[2]": {"target": "hα6(A184D) + WT hβ2 + hβ3^V9’S nAChR (Homo sapiens, UniProt P17787+Q15825, A184D)", "conditions": "100 μM nicotine; 3 days after cRNA injection", "experimental": "as §1, §2, §3"}, "[3]": {"tested_on": "hα6(D199Y) + WT hβ2 + hβ3^V9’S nAChR", "conditions": "100 μM nicotine; higher, p < 0.05", "experimental": "as §1, §2, §3"}, "[4]": {"target": "hα6(D57N) + WT hβ2 + hβ3^V9’S nAChR (Homo sapiens, UniProt P17787+Q15825, D57N)", "conditions": "nicotine", "experimental": "as §1, §2, §3"}, "[5]": {"target": "hα6(D57N) + hβ4 + hβ3 nAChR (Homo sapiens, UniProt P30926+Q15825, D57N)", "sequence (Q15825 26-494 D57N)": "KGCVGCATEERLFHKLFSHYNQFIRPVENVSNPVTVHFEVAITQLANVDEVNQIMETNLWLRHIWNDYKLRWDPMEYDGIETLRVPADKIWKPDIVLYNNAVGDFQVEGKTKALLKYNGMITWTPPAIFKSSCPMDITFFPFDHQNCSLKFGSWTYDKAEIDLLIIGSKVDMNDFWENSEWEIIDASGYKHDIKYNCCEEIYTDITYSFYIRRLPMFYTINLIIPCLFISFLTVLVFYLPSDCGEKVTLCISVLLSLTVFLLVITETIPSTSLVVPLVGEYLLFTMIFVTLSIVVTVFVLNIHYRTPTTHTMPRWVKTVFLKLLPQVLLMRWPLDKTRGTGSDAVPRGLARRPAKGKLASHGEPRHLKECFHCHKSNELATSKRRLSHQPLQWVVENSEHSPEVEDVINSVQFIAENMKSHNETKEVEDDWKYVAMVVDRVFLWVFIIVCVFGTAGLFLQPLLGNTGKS", "sequence (P30926 22-498)": "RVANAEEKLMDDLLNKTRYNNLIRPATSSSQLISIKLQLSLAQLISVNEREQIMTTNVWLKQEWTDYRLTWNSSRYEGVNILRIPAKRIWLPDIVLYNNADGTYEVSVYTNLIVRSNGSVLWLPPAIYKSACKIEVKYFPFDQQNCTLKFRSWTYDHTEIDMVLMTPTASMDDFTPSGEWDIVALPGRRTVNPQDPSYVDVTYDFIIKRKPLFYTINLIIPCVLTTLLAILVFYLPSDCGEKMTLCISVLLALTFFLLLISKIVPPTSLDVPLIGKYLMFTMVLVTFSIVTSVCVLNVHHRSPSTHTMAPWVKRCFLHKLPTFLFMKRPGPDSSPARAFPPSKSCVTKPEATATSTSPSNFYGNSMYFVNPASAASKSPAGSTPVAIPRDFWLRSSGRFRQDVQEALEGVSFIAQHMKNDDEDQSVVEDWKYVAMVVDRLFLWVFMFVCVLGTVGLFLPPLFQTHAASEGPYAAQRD", "conditions": "nicotine", "experimental": "as §1, §2, §3"}, "[6]": {"target": "hα6(D92E) + hβ4 + hβ3 nAChR (Homo sapiens, UniProt P30926+Q15825, D92E)", "conditions": "100 μM nicotine; oocytes clamped at −70 mV", "experimental": "as §1, §2, §3"}, "[7]": {"target": "hα6(E101K) + WT hβ2 + hβ3^V9’S nAChR (Homo sapiens, UniProt P17787+Q15825, E101K)", "sequence (Q15825 26-494 E101K)": "as the sequence (Q15825 26-494 D57N) above, with N32D, E76K counted along it", "sequence (P17787 26-502)": "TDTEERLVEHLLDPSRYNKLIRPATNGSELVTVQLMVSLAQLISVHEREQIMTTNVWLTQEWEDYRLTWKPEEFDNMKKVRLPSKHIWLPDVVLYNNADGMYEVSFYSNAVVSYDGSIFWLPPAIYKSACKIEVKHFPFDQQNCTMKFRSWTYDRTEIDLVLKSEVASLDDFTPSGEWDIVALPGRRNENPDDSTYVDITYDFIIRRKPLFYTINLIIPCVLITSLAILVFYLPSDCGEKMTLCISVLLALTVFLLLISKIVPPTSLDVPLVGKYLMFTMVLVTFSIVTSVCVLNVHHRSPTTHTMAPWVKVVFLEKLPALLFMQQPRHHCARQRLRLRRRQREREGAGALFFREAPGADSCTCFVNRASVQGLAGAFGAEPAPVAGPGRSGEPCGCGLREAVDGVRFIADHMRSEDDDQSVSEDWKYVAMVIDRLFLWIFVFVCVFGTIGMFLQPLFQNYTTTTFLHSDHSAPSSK", "sequence (Q05901 25-458 V273S partner limits assumed)": "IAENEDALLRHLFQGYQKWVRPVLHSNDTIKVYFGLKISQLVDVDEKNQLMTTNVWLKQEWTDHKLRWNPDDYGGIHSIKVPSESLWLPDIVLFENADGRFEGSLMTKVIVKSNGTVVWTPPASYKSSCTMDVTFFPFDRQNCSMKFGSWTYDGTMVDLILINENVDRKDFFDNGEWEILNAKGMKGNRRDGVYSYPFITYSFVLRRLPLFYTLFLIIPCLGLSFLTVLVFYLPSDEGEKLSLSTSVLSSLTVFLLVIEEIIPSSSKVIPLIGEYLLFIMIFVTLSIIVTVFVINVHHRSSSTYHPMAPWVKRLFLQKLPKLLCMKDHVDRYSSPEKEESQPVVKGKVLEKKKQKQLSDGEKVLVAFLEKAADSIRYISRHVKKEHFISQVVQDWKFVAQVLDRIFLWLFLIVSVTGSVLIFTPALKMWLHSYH", "conditions": "100 μM nicotine; 3 days after cRNA injection", "experimental": "as §1, §2, §3"}, "hα6(E101K) + hβ4 nAChR": {"target": "hα6(E101K) + hβ4 nAChR (Homo sapiens, UniProt P30926+Q15825, E101K)", "sequence (Q15825 26-494 E101K)": "as the sequence (Q15825 26-494 D57N) above, with N32D, E76K counted along it", "sequence (P30926 22-498)": "as the sequence (P30926 22-498) above", "conditions": "100 μM nicotine; oocytes clamped at −70 mV", "experimental": "as §1, §2, §3"}, "[8]": {"target": "hα6(I226T) + codon optimized hβ2 + hβ3^V9’S nAChR (Homo sapiens, UniProt P17787+Q15825, I226T)", "conditions": "100 μM nicotine; oocytes clamped at −70 mV", "experimental": "as §1, §2, §3"}, "[9]": {"target": "hα6(N171K) + hβ4 + hβ3 nAChR (Homo sapiens, UniProt P30926+Q15825, N171K)", "sequence (Q15825 26-494 N171K)": "as the sequence (Q15825 26-494 D57N) above, with N32D, N146K counted along it", "sequence (P30926 22-498)": "as the sequence (P30926 22-498) above", "sequence (Q05901 25-458 partner limits assumed)": "as the sequence (Q05901 25-458 V273S partner limits assumed) above, with S249V counted along it", "conditions": "nicotine", "experimental": "as §1, §2, §3"}, "[10]": {"target": "hα6(N203T) + hβ4 + hβ3 nAChR (Homo sapiens, UniProt P30926+Q15825, N203T)", "conditions": "100 μM nicotine; oocytes clamped at −70 mV", "experimental": "as §1, §2, §3"}, "[11]": {"target": "hα6(N46K) + WT hβ2 + hβ3^V9’S nAChR (Homo sapiens, UniProt P17787+Q15825, N46K)", "conditions": "nicotine", "experimental": "as §1, §2, §3"}, "[12]": {"target": "hα6(N46K) + codon optimized hβ2 + hβ3^V9’S nAChR (Homo sapiens, UniProt P17787+Q15825, N46K)", "conditions": "100 μM nicotine; oocytes clamped at −70 mV", "experimental": "as §1, §2, §3"}, "[13]": {"target": "hα6(N46K) + hβ4 + hβ3 nAChR (Homo sapiens, UniProt P30926+Q15825, N46K)", "conditions": "100 μM nicotine; oocytes clamped at −70 mV", "experimental": "as §1, §2, §3"}, "hα6(N46K) + hβ4 nAChR": {"target": "hα6(N46K) + hβ4 nAChR (Homo sapiens, UniProt P30926+Q15825, N46K)", "conditions": "100 μM nicotine; oocytes clamped at −70 mV", "experimental": "as §1, §2, §3"}, "[14]": {"tested_on": "hα6(R96H) + WT hβ2 + hβ3^V9’S nAChR", "conditions": "100 μM nicotine; higher, p < 0.05", "experimental": "as §1, §2, §3"}, "[15]": {"tested_on": "hα6(S233C) + WT hβ2 + hβ3^V9’S nAChR", "conditions": "100 μM nicotine; higher, p < 0.05", "experimental": "as §1, §2, §3"}, "[16]": {"target": "hα6(S233C) + codon optimized hβ2 + hβ3^V9’S nAChR (Homo sapiens, UniProt P17787+Q15825, S233C)", "conditions": "100 μM nicotine; oocytes clamped at −70 mV", "experimental": "as §1, §2, §3"}}, "data": [{"smiles": "CN1CCC[C@H]1c1cccnc1", "note": "[nicotine, L-nicotine]", "values": [{"measurement": "peak current (Imax, mean ± SE)", "setting": "[1]", "value": "293 ± 24", "unit": "nA"}, {"measurement": "peak current response", "setting": "[2]", "value": "15-30 nA"}, {"measurement": "peak current response relative to hα6hβ2hβ3^V9’S-nAChRs", "setting": "[3]", "value": "2-5 fold"}, {"measurement": "current response", "setting": "[4]", "value": "did not yield current responses"}, {"measurement": "current response", "setting": "[5]", "value": "did not elicit current responses"}, {"measurement": "Mean (±SE) peak current response", "setting": "[6]", "value": "126 ± 5", "unit": "nA"}, {"measurement": "peak current response", "setting": "[7]", "value": "15-30 nA"}, {"measurement": "peak current (Imax, mean ± SE)", "setting": "hα6(E101K) + hβ4 nAChR", "value": "73 ± 10", "unit": "nA"}, {"measurement": "peak current (Imax, mean ± SE)", "setting": "[8]", "value": "753 ± 137", "unit": "nA"}, {"measurement": "current response", "setting": "[9]", "value": "did not elicit current responses"}, {"measurement": "Mean (±SE) peak current response", "setting": "[10]", "value": "371 ± 68", "unit": "nA"}, {"measurement": "current response", "setting": "[11]", "value": "did not yield current responses"}, {"measurement": "peak current (Imax, mean ± SE)", "setting": "[12]", "value": "118 ± 33", "unit": "nA"}, {"measurement": "Mean (±SE) peak current response", "setting": "[13]", "value": "307 ± 39", "unit": "nA"}, {"measurement": "peak current (Imax, mean ± SE)", "setting": "hα6(N46K) + hβ4 nAChR", "value": "78 ± 11", "unit": "nA"}, {"measurement": "peak current response relative to hα6hβ2hβ3^V9’S-nAChRs", "setting": "[14]", "value": "2-5 fold"}, {"measurement": "peak current response relative to hα6hβ2hβ3^V9’S-nAChRs", "setting": "[15]", "value": "2-5 fold"}, {"measurement": "peak current (Imax, mean ± SE)", "setting": "[16]", "value": "1582 ± 221", "unit": "nA"}]}]}
